A short description of the series: stability to temperature and humidity changes (storage/handling). The following applies: solid; storage without desiccant agent or without being sealed. The series is classed as physicochemical.

For “aminoadamantane carbamate hydrochloride dihydrate [III-2]”, the “stability to temperature and humidity changes” value was “stable to temperature and humidity changes”.

Values taken from patent US8901316B2, “Process for preparing aminoadamantyl carbamate derivatives” (Shionogi & Co., Ltd., priority 2010, dated 2014).
